Laboratory results as given in ChEMBL document CHEMBL4665724, “Structure-activity relationship analysis of dammarane-type natural products as muscle-type creatine kinase activators” (Bioorg Med Chem Lett, 2020).
Calls of active or inactive are those of the source. The rule behind the calls is not given here.

Columns and labels:
[1] = target: Creatine kinase M-type (Oryctolagus cuniculus) (UniProt P00563); experiment: Binding affinity to rabbit CK-MM at 20 uM
[2] = target: Creatine kinase M-type (Oryctolagus cuniculus) (UniProt P00563); experiment: Activation of rabbit CK-MM assessed as increase in enzyme activity at 5 to 80 uM; settings: dose microM 5-80
[3] = target: Creatine kinase M-type (Oryctolagus cuniculus) (UniProt P00563); experiment: Activation of rabbit CK-MM assessed as increase in enzyme activity at 40 uM relative to control
[4] = target: Creatine kinase M-type (Oryctolagus cuniculus) (UniProt P00563); experiment: Activation of rabbit CK-MM assessed as increase in enzyme activity at 20 uM relative to control
[5] = target: Creatine kinase M-type (Homo sapiens) (UniProt P06732); experiment: Binding affinity to recombinant human His-tagged CK-MM at 20 uM by Biolayer Interferometry analysis
Sequence of Creatine kinase M-type (Homo sapiens) (P06732 whole entry): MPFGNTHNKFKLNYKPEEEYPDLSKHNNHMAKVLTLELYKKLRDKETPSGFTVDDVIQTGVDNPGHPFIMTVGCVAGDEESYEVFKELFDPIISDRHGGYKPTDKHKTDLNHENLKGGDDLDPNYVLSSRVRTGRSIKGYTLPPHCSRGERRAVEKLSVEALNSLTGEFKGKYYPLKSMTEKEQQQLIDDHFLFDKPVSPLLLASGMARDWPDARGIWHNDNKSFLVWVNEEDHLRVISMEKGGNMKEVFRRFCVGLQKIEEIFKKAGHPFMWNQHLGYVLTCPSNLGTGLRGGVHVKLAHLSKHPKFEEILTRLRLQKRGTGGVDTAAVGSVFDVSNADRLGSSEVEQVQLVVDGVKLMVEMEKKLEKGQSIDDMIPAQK

[6] = target: Creatine kinase M-type (Homo sapiens) (UniProt P06732); experiment: Activation of human CK-MM assessed as increase in enzyme activity at 40 uM relative to control
[7] = target: Creatine kinase M-type (Homo sapiens) (UniProt P06732); experiment: Activation of human CK-MM assessed as increase in enzyme activity at 5 uM relative to control
[8] = target: Creatine kinase M-type (Homo sapiens) (UniProt P06732); experiment: Activation of human CK-MM assessed as increase in enzyme activity at 80 uM relative to control
[9] = target: Creatine kinase M-type (Homo sapiens) (UniProt P06732); experiment: Activation of human CK-MM assessed as increase in enzyme activity at 10 uM relative to control
[10] = target: Creatine kinase M-type (Oryctolagus cuniculus) (UniProt P00563); experiment: Activation of rabbit CK-MM assessed as increase in enzyme activity at 80 uM relative to control
[11] = target: Creatine kinase M-type (Homo sapiens) (UniProt P06732); experiment: Activation of human CK-MM assessed as increase in enzyme activity at 20 uM relative to control
[12] = target: Creatine kinase M-type (Homo sapiens) (UniProt P06732); experiment: Activation of human CK-MM assessed as increase in enzyme activity at 5 to 80 uM; settings: dose microM 5-80
[13] = target: Creatine kinase M-type (Oryctolagus cuniculus) (UniProt P00563); experiment: Activation of rabbit CK-MM assessed as increase in enzyme activity at 10 uM relative to control

Sequence of Creatine kinase M-type (Oryctolagus cuniculus) (P00563 whole entry): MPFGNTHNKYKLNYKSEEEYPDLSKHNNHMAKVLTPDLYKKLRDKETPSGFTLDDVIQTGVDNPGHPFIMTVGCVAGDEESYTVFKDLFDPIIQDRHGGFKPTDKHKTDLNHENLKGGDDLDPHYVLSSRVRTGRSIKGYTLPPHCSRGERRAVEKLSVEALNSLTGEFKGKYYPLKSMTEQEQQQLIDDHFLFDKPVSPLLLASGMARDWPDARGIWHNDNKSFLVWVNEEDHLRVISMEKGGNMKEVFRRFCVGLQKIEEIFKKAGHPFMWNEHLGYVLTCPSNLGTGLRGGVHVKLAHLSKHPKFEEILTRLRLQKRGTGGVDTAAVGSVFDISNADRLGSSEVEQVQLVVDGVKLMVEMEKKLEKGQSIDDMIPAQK

| Structure (SMILES) | Activity ([5]; filed as activator) | Activity [6] [%] | Activity [7] [%] | Activity [8] [%] | Activity [9] [%] | Activity [11] [%] | further results |
| --- | --- | --- | --- | --- | --- | --- | --- |
| CC(C)=CCC[C@](C)(O[C@@H]1O[C@H](CO)[C@@H](O)[C@H](O)[C@H]1O)[C@H]1CC[C@]2(C)[C@@H]1[C@H](O)C[C@@H]1[C@@]3(C)CC[C@H](O)C(C)(C)[C@@H]3[C@@H](O[C@@H]3O[C@H](CO)[C@@H](O)[C@H](O)[C@H]3O)C[C@]12C |  |  |  |  |  |  | Activity [1]: inactive; Activity [2]: inactive |
| CC(C)=CCC[C@](C)(O)[C@H]1CC[C@]2(C)[C@@H]1[C@H](O)C[C@@H]1[C@@]3(C)CC[C@H](O[C@@H]4O[C@H](CO)[C@@H](O)[C@H](O)[C@H]4O)C(C)(C)[C@@H]3CC[C@]12C |  |  |  |  |  |  | Activity [3]: 3.5%; Activity ([1]; filed as activator): Active; Activity [4]: 3.1% |
| CC(C)=CCC[C@](C)(O)[C@H]1CC[C@]2(C)[C@@H]1[C@H](O)C[C@@H]1[C@@]3(C)CC[C@H](O)C(C)(C)[C@@H]3[C@@H](O)C[C@]12C | Active | 19.7 | 19.1 | 13.6 | 20.6 | 32.2 | Activity [3]: 3.4%; Activity ([1]; filed as activator): Active; Activity [4]: 4.4%; Activity [10]: 2.1% |
| CC1(C)CCC[C@](C)([C@H]2CC[C@]3(C)[C@@H]2[C@H](O)C[C@@H]2[C@@]4(C)CC[C@H](O)C(C)(C)[C@@H]4[C@H](O)C[C@]23C)O1 |  |  |  |  |  |  | Activity [5]: inactive; Activity [12]: inactive |
| CC(C)=CCC[C@](C)(O[C@@H]1O[C@H](CO)[C@@H](O)[C@H](O)[C@H]1O)[C@H]1CC[C@]2(C)[C@@H]1[C@H](O)C[C@@H]1[C@@]3(C)CC[C@H](O[C@@H]4O[C@H](CO)[C@@H](O)[C@H](O)[C@H]4O[C@@H]4O[C@H](CO)[C@@H](O)[C@H](O)[C@H]4O)C(C)(C)[C@@H]3CC[C@]12C |  |  |  |  |  |  | Activity [1]: inactive; Activity [2]: inactive |
| CC(C)=C[C@H]1C[C@](C)(O)[C@@H]2[C@H]3CC[C@@H]4[C@@]5(C)CC[C@H](O)C(C)(C)[C@@H]5CC[C@@]4(C)[C@@]34CO[C@@]2(C4)O1 |  | 5.7 | 16.9 |  | 11.9 |  | Activity [5]: inactive |
| CC(C)=CCC[C@@](C)(O)[C@H]1CC[C@]2(C)[C@@H]1[C@H](O)C[C@@H]1[C@@]3(C)CC[C@H](O)C(C)(C)[C@@H]3CC[C@]12C | Active | 14.3 | 12.6 | 10.2 | 14.7 | 23.5 |  |
| CC(C)(O)[C@H]1CC[C@@](C)([C@H]2CC[C@]3(C)[C@@H]2[C@H](O)C[C@@H]2[C@@]4(C)CC[C@H](O)C(C)(C)[C@@H]4CC[C@]23C)O1 |  |  |  |  |  |  | Activity [5]: inactive; Activity [12]: inactive |
| CC1(C)[C@@H](O)CC[C@]2(C)[C@H]3C[C@@H](O)[C@@H]4[C@@H]([C@@](C)(O)CCC(=O)O)CC[C@@]4(C)[C@]3(C)CC[C@@H]12 | Active |  | 37.6 |  | 37.4 |  | Activity ([6]; filed as activator): 49.8%; Activity ([8]; filed as activator): 52.1%; Activity ([12]; filed as activator): Dose-dependent effect; Activity ([11]; filed as activator): 49.7% |
| CC(C)=CCC[C@](C)(O)[C@H]1CC[C@]2(C)[C@@H]1[C@H](O)C[C@@H]1[C@@]3(C)CC[C@H](O)C(C)(C)[C@@H]3CC[C@]12C | Active |  | 29.6 |  | 35.4 | 39.2 | Activity ([6]; filed as activator): 54.3%; Activity [3]: 4.2%; Activity ([1]; filed as activator): Active; Activity [4]: 4.3%; Activity ([8]; filed as activator): 53.2%; Activity ([12]; filed as activator): Dose-dependent effect; Activity [13]: 9.3% |
| CC1(C)CCC[C@](C)([C@H]2CC[C@]3(C)[C@@H]2[C@H](O)C[C@@H]2[C@@]4(C)CC[C@H](O)C(C)(C)[C@@H]4CC[C@]23C)O1 | Active | 14.4 |  | 15.4 |  | 7.1 |  |
| CC(C)(O)CCC[C@](C)(O)[C@H]1CC[C@]2(C)[C@@H]1[C@H](O)C[C@@H]1[C@@]3(C)CC[C@H](O)C(C)(C)[C@@H]3CC[C@]12C | Active | 7.5 | 17.3 | 15.6 | 8.6 |  |  |
